# Assay results published in patent US20190167814A1, “Treatment And/Or Prevention Of DNA-Triplet Repeat Diseases Or Disorders” (UNIVERSITÉ DE LAUSANNE, priority 2016, published 2019).
# Columns and labels:
# GFP(CAG)101 cells [1] = assay: Cell cycle analysis upon inhibitor treatment (propidium iodine, flow cytometry); type: cell-based, human; details: for >2n / >4n / G1 / G2 / S: Cas9 D10A + gCTG cells, DMSO or inhibitor 1 μM, 96 hours, average % of cells, n = 4
# Experimental: (§1) When using small molecule inhibitors (Table 4), the cells were treated as above, except that 2×10^5 fewer cells/well were used. The medium, along with the dox and the inhibitors, were replaced for another 48 hours of treatment. Cell cycle analysis was performed after 96 hours of treatment. Briefly, the cells were fixed with 100% ethanol and treated with RNAseA (50 μg/mL) before adding propidium iodine (50 μg/mL). Flow cytometry analysis was performed as described below.
# GFP(CAG)101 cells [2] = assay: Cell viability (TO-PRO-3 dead cell marker, flow cytometry); type: cell-based; details: Cas9 D10A + gCTG transfected cells treated with DMSO or inhibitor (1 μM); three experiments
# Experimental: (§2) In preparation for flow cytometry analysis, cells were re-suspended in phosphate buffered saline (PBS) with 1 mM EDTA to a concentration of about 10^6 cells/mL. For each condition, we measured at least 2×10^5 events using a LSRII from BD. Data analysis was done using Flowing II. FACS was performed using a FACS Aria II (BD) or MoFlo Astrios (Beckman Coulter). For single clone analyses, we re-suspended the cells to a concentration of 2×10^6 cells/mL and sorted the GFP^− and GFP^+ cells. The cells were then expanded in DMEM glutamax supplemented with pen-strep, blasticidine, hygromycin, 5% FBS, and 5% dialyzed calf serum. For DNA isolation, cells were re-suspended to a concentration of 1.4×10^7 cells/mL and we isolated between 4×10^4 and […] from the GFP− and GFP^+ populations. We also isolated cells with GFP intensities between the 25th and 75th percentiles. For viability tests, cells were treated as described above except that 96 hours after the first transfection they were collected in PBS with 1 mM EDTA and 1 μM of TO-PRO-3 was added as a dead cell marker.
# GFP(CAG)101 cells [3] = assay: GFP-based assay for CAG repeat expansions and contractions (flow cytometry of GFP- and GFP+ cells); type: cell-based, human; details: for frequency of GFP+ cells (contractions) induced by Cas9 nickase + gCTG under inhibitor, in words: inhibitor 1 μM, compared to DMSO controls; for Cas9 nickase + gCTG-induced GFP-/GFP+ cells on siRNA knockdown, in words: 20 nM siRNA, compared to control knockdown of vimentin
# Experimental: (§3) The GFP(CAG)0 and GFP(CAG)101 cells lines were a kind gift from John H. Wilson^3. The cells tested negative for mycoplasma using the MycoAlert detection kit (Lonza) at the start of our experiments. The GFP(CAG)15, GFP(CAG)18, GFP(CAG)42, GFP(CAG)50, and GFP(CAG)270 were isolated from populations grown for 6 months unperturbed or after transfection with the ZFN. […] The cells were maintained at 37° C. with 5% CO2 in Dulbecco's modified Eagle's medium (DMEM) glutamax, supplemented with 10% Fetal Bovine Serum (FBS), 100 U/mL penicillin (pen), 100 μg/mL streptomycin (strep), 15 μg/mL blasticidine and 150 μg/mL hygromycin. When the cells were destined for flow cytometry, they were kept in DMEM glutamax, with 10% of dialyzed calf serum, along with pen-strep. During the long term culturing, the cells were split 1 to 5 twice a week and the medium was supplemented with blasticidine and hygromycin to ensure continued expression of the TetR and GFP transgenes.
# The plasmids used in this study are found in Table 2. cDNA transfections were performed using 6×10^5 cells/well in 12-well plates using a total of 1 μg of DNA and Lipofectamine 2000 (Life Technologies) per well. The culture medium was replaced 6 hours after transfection and 2 μg/mL of dox, diluted in DMSO, was added. Controls without dox were treated with DMSO alone. Forty-eight hours later, the medium was replaced and dox was freshly added. Flow cytometry, protein extraction, and/or DNA extraction were performed after another 48 hours of incubation.
# The siRNAs used in this study are found in Table 3. When transfecting with both a cDNA and a siRNA, 8×10^5 cells/well were used along with 1 μg of DNA and 20 nM of siRNAs using Lipofectamine 2000. The medium was replaced 6 hours later and dox was added. Forty-eight hours after the first transfection, we performed a second siRNA transfection with RNAiMax (Life technologies) using half of the cells present and 20 nM of siRNA. We collected the cells to assess knockdown efficiency or GFP fluorescence analysis 48 hours later. When transfecting two siRNAs, we used a final siRNA concentration of 40 nM, where 20 nM of each individual siRNA were used.
# as §1, §2
# To quantify the fold increase in the number of GFP^+ or GFP^− cells, we first established gates that contained the top or bottom 1% of GFP expressing cells in the control treatment, for example the nickase plasmid transfected together with an empty gRNA vector (pPN10). […]
# PARP1/2 = assay: PAR levels after Zeocin treatment (western blot); type: cell-based, human; details: 100 μg/ml Zeocin, 30 minutes and 24 hours
# Excerpt: Dashed line: dimmest (GFP^−) or brightest (GFP^+) 1% of the cells transfected with the Cas9 nickase vector; the empty gRNA plasmid; and the indicated siRNAs. Right: western blot showing knockdown efficiency by siRNA against XRCC1. B) Left: same as A, but cells treated with the PARP inhibitor Oliparib (n=4, P=0.5 for GFP^− cells and P=0.4 for GFP^+ compared to DMSO treated-cells, using a Wilcoxon U-test). Dashed line: dimmest (GFP^−) or brightest (GFP^+) 1% of the cells transfected with the Cas9 nickase vector together with the empty gRNA plasmid, and treated with either DMSO or Oliparib. Right: PAR levels 30 minutes and 24 hours after treatment with 100 μg/ml of Zeocin. The error bars represent the standard error.
# Protein extraction was done using RIPA buffer and proteinase inhibitor cocktail tablets (Roche, Germany) and at least 10 μg of proteins were loaded onto a 6% or 10% Tris/glycine SDS polyacrylamide gels and transferred onto nitrocellulose membranes. The antibodies used in this study are found in Table 6. An Odyssey Infrared Imager (Licor) was used for signal detection.
# GFP(CAG)0 cells = assay: GFP-based reporter assay in isogenic cell line devoid of CAG repeats; design: species or system human; details: GFP(CAG)0, no CAG repeats
# Experimental: as §3, with “When the cells were destined for flow cytometry, they were kept in DMEM glutamax, with 10% of dialyzed calf serum, along with pen-strep. During the long term culturing, the cells were split 1 to 5 twice a week and the medium was supplemented with blasticidine and hygromycin to ensure continued expression of the TetR and GFP transgenes.” left out
# In preparation for flow cytometry analysis, cells were re-suspended in phosphate buffered saline (PBS) with 1 mM EDTA to a concentration of about 10^6 cells/mL. For each condition, we measured at least 2×10^5 events using a LSRII from BD. […]
# To quantify the fold increase in the number of GFP^+ or GFP^− cells, we first established gates that contained the top or bottom 1% of GFP expressing cells in the control treatment, for example the nickase plasmid transfected together with an empty gRNA vector (pPN10). […] Once the GFP gates established, we calculated the percentage of cells from the treated population (e.g., expressing both the Cas9 nickase and the gCTG) falling within these same gates. […]
# [4] = inhibitor 1 μM in combination with Cas9-nickase and gCTG, vs nickase + pPN10 + inhibitor
Compound,>2n (GFP(CAG)101 cells [1]) [%],>4n (GFP(CAG)101 cells [1]) [%],G1 (GFP(CAG)101 cells [1]) [%],G2 (GFP(CAG)101 cells [1]) [%],S (GFP(CAG)101 cells [1]) [%],Viability % (GFP(CAG)101 cells [2]) [%],"frequency of GFP+ cells (contractions) induced by Cas9 nickase + gCTG under inhibitor, in words (GFP(CAG)101 cells [3])","Cas9 nickase + gCTG-induced GFP-/GFP+ cells on siRNA knockdown, in words (GFP(CAG)101 cells [3])",further results
C[C@@H]1CN(CC(=O)Nc2ccc3c(c2)Cc2cccc(-c4cc(=O)cc(N5CCOCC5)o4)c2S3)C[C@H](C)O1 [KU60019],7.5,4.9 ± 1,34.9,37.2,15.3,77.2,nearly two-fold reduction,–,–
O=C(c1cc(Cc2n[nH]c(=O)c3ccccc23)ccc1F)N1CCN(C(=O)C2CC2)CC1 [Oliparib],5.0,5.3 ± 1,40.7,30.0,19.0,75.9,Neither treatment changed the frequency,–,"PARylation in response to zeocin treatment (PARP1/2): inhibiting PARylation; cell cycle effect, in words (GFP(CAG)101 cells [1]): accumulation of G2 cells"
CS(=O)(=O)c1ccc(-c2cnc(N)c(C(=O)Nc3ccccc3)n2)cc1 [VE-821],2.0,10.3 ± 3,41.4,25.4,20.9,–,–,–,"effect on GFP intensities / GFP expression, in words (GFP(CAG)0 cells): did not affect GFP expression; fold increase in GFP+ cells (GFP(CAG)101 cells [3]; [4]): 5.9 fold; fold increase in GFP- cells (GFP(CAG)101 cells [3]; [4]): 3.1 fold"
"siMSH2: siRNA targeting MSH2, SEQ ID No. 6 (UCUGCAGAGUGUUGUGCUU; listed as RNA, chemistry not given here)",–,–,–,–,–,–,–,did not consistently reduce,–
"siRNA against XRCC1: siRNA targeting XRCC1, SEQ ID No. 8 (CAGUUUGUGAUCACAGCACAGGAAU; listed as RNA, chemistry not given here)",–,–,–,–,–,–,–,did not affect the GFP expression,–
"siXPA: siRNA targeting XPA, SEQ ID No. 7 (GCUACUGGAGGCAUGGCUA; listed as RNA, chemistry not given here)",–,–,–,–,–,–,–,did not significantly reduce,–
